Results as given in US8022099B2, “N-benzyl pyrrolidine derivatives” (Hoffmann-La Roche Inc., priority 2008, dated 2011).

Molecular target: T1, human NK3 receptor (Homo sapiens, UniProt P29371)
T1 construct: expressed in transfected cells; host or cells: HEK293 cells (transient expression), membrane preparation
T1 sequence (P29371 1-465): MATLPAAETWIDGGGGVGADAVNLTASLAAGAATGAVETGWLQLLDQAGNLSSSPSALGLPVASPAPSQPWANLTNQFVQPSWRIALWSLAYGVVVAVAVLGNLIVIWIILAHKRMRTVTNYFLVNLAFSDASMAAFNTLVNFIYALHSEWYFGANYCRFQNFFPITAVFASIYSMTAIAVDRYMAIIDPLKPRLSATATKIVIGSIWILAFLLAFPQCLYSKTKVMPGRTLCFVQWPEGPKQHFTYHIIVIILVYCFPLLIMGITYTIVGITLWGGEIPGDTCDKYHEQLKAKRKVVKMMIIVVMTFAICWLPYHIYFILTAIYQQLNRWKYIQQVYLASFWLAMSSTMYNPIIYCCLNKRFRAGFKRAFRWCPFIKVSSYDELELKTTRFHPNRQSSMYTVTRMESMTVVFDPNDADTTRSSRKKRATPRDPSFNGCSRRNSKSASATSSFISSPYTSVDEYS
Assay: [3H]SR142801 competition binding assay
Conditions: hNK3 receptor binding, [3H]SR142801, membranes from HEK293 cells transiently expressing recombinant human NK3 receptor
Method in brief: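 Membranes from HEK293 cells transiently expressing human NK3 were incubated 75 min at RT with [3H]SR142801 at its KD and inhibitor (0.0003-10 μM) in Tris-HCl pH 7.4/MnCl2/phosphoramidon/BSA. Nonspecific binding used 10 μM SB222200. Ki from Hill-fitted IC50 via Cheng-Prusoff, duplicate determinations.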

CN(Cc1ccc(C(F)(F)F)c(F)c1)[C@H]1CN(C(=O)CCCCN2CCOCC2)C[C@@H]1c1cccc(Cl)c1 (racemic) [Example 107, 1-{(3SR,4RS)-3-(3-Chloro-phenyl)-4-[(3-fluoro-4-trifluoromethyl-benzyl)-methyl-amino]-pyrrolidin-1-yl}-5-morpholin-4-yl-pentan-1-one]
Ki: 81.2 nM

CN(Cc1ccc(C(F)(F)F)c(F)c1)[C@H]1CN(C(=O)CN2CCOCC2)C[C@@H]1c1ccc(Cl)c(Cl)c1 (racemic) [Example 113, 1-{(3SR,4RS)-3-(3,4-Dichloro-phenyl)-4-[(3-fluoro-4-trifluoromethyl-benzyl)-methyl-amino]-pyrrolidin-1-yl}-2-morpholin-4-yl-ethanone]
Ki: 45.7 nM

CN1CCN(CC(=O)N2C[C@H](c3ccc(Cl)c(Cl)c3)[C@@H](N(C)Cc3ccc(C(F)(F)F)c(F)c3)C2)CC1 (racemic) [Example 114, 1-{(3SR,4RS)-3-(3,4-Dichloro-phenyl)-4-[(3-fluoro-4-trifluoromethyl-benzyl)-methyl-amino]-pyrrolidin-1-yl}-2-(4-methyl-piperazin-1-yl)-ethanone]
Ki: 40.2 nM

CN(Cc1ccc(C(F)(F)F)c(F)c1)[C@H]1CN(C(=O)CN2CCN(S(C)(=O)=O)CC2)C[C@@H]1c1ccc(Cl)c(Cl)c1 (racemic) [Example 115, 1-{(3SR,4RS)-3-(3,4-Dichloro-phenyl)-4-[(3-fluoro-4-trifluoromethyl-benzyl)-methyl-amino]-pyrrolidin-1-yl}-2-(4-methanesulfonyl-piperazin-1-yl)-ethanone]
Ki: 13 nM

CN(Cc1ccc(C(F)(F)F)c(F)c1)[C@H]1CN(C(=O)CN2CCN(S(=O)(=O)N(C)C)CC2)C[C@@H]1c1ccc(Cl)c(Cl)c1 (racemic) [Example 116, 4-(2-{(3SR,4RS)-3-(3,4-Dichloro-phenyl)-4-[(3-fluoro-4-trifluoromethyl-benzyl)-methyl-amino]-pyrrolidin-1-yl}-2-oxo-ethyl)-piperazine-1-sulfonic acid dimethylamide]
Ki: 16.9 nM

CN(C)CCN1CCN(CC(=O)N2C[C@H](c3ccc(Cl)c(Cl)c3)[C@@H](N(C)Cc3ccc(C(F)(F)F)c(F)c3)C2)CC1 (racemic) [Example 117, 1-{(3SR,4RS)-3-(3,4-Dichloro-phenyl)-4-[(3-fluoro-4-trifluoromethyl-benzyl)-methyl-amino]-pyrrolidin-1-yl}-2-[4-(2-dimethylamino-ethyl)-piperazin-1-yl]-ethanone]
Ki: 19.3 nM

CN(Cc1ccc(C(F)(F)F)c(F)c1)[C@H]1CN(C(=O)CN2CCN(CCC#N)CC2)C[C@@H]1c1ccc(Cl)c(Cl)c1 (racemic) [Example 118, 3-[4-(2-{(3SR,4RS)-3-(3,4-Dichloro-phenyl)-4-[(3-fluoro-4-trifluoromethyl-benzyl)-methyl-amino]-pyrrolidin-1-yl}-2-oxo-ethyl)-piperazin-1-yl]-propionitrile]
Ki: 11.2 nM

CN(C)CCNCC(=O)N1C[C@H](c2ccc(Cl)c(Cl)c2)[C@@H](N(C)Cc2ccc(C(F)(F)F)c(F)c2)C1 (racemic) [Example 124, 1-{(3SR,4RS)-3-(3,4-Dichloro-phenyl)-4-[(3-fluoro-4-trifluoromethyl-benzyl)-methyl-amino]-pyrrolidin-1-yl}-2-(2-dimethylamino-ethylamino)-ethanone]
Ki: 96.4 nM

CN(C)CCCNCC(=O)N1C[C@H](c2ccc(Cl)c(Cl)c2)[C@@H](N(C)Cc2ccc(C(F)(F)F)c(F)c2)C1 (racemic) [Example 125, 1-{(3SR,4RS)-3-(3,4-Dichloro-phenyl)-4-[(3-fluoro-4-trifluoromethyl-benzyl)-methyl-amino]-pyrrolidin-1-yl}-2-(3-dimethylamino-propylamino)-ethanone]
Ki: 76.8 nM

CN(C)CCCN(C)CC(=O)N1C[C@H](c2ccc(Cl)c(Cl)c2)[C@@H](N(C)Cc2ccc(C(F)(F)F)c(F)c2)C1 (racemic) [Example 126, 1-{(3SR,4RS)-3-(3,4-Dichloro-phenyl)-4-[(3-fluoro-4-trifluoromethyl-benzyl)-methyl-amino]-pyrrolidin-1-yl}-2-[(3-dimethylamino-propyl)-methyl-amino]-ethanone]
Ki: 80.5 nM

CN(Cc1ccc(C(F)(F)F)c(F)c1)[C@H]1CN(C(=O)CNCCC#N)C[C@@H]1c1ccc(Cl)c(Cl)c1 (racemic) [Example 127, 3-(2-{(3SR,4RS)-3-(3,4-Dichloro-phenyl)-4-[(3-fluoro-4-trifluoromethyl-benzyl)-methyl-amino]-pyrrolidin-1-yl}-2-oxo-ethylamino)-propionitrile]
Ki: 99.7 nM

CN(CCC#N)CC(=O)N1C[C@H](c2ccc(Cl)c(Cl)c2)[C@@H](N(C)Cc2ccc(C(F)(F)F)c(F)c2)C1 (racemic) [Example 128, 3-[(2-{(3SR,4RS)-3-(3,4-Dichloro-phenyl)-4-[(3-fluoro-4-trifluoromethyl-benzyl)-methyl-amino]-pyrrolidin-1-yl}-2-oxo-ethyl)-methyl-amino]-propionitrile]
Ki: 72 nM

CN(Cc1ccc(C(F)(F)F)c(F)c1)[C@H]1CN(C(=O)CN2CCN(CCCO)CC2)C[C@@H]1c1ccc(Cl)c(Cl)c1 (racemic) [Example 129, 1-{(3SR,4RS)-3-(3,4-Dichloro-phenyl)-4-[(3-fluoro-4-trifluoromethyl-benzyl)-methyl-amino]-pyrrolidin-1-yl}-2-[4-(3-hydroxy-propyl)-piperazin-1-yl]-ethanone]
Ki: 17.1 nM

CN(Cc1ccc(C(F)(F)F)c(F)c1)[C@H]1CN(C(=O)CN2CCC(C#N)CC2)C[C@@H]1c1ccc(Cl)c(Cl)c1 (racemic) [Example 130, 1-(2-{(3SR,4RS)-3-(3,4-Dichloro-phenyl)-4-[(3-fluoro-4-trifluoromethyl-benzyl)-methyl-amino]-pyrrolidin-1-yl}-2-oxo-ethyl)-piperidine-4-carbonitrile]
Ki: 25.4 nM

CN(Cc1ccc(C(F)(F)F)c(F)c1)[C@H]1CN(C(=O)CN2CCNCC2)C[C@@H]1c1ccc(Cl)c(Cl)c1 (racemic) [Example 131, 1-{(3SR,4RS)-3-(3,4-Dichloro-phenyl)-4-[(3-fluoro-4-trifluoromethyl-benzyl)-methyl-amino]-pyrrolidin-1-yl}-2-piperazin-1-yl-ethanone]
Ki: 33.4 nM

CN(Cc1ccc(C(F)(F)F)c(F)c1)[C@H]1CN(C(=O)CN2CCC(O)CC2)C[C@@H]1c1ccc(Cl)c(Cl)c1 (racemic) [Example 132, 1-{(3SR,4RS)-3-(3,4-Dichloro-phenyl)-4-[(3-fluoro-4-trifluoromethyl-benzyl)-methyl-amino]-pyrrolidin-1-yl}-2-(4-hydroxy-piperidin-1-yl)-ethanone]
Ki: 26.3 nM

CN(C)C1CCN(CC(=O)N2C[C@H](c3ccc(Cl)c(Cl)c3)[C@@H](N(C)Cc3ccc(C(F)(F)F)c(F)c3)C2)CC1 (racemic) [Example 136, 1-{(3SR,4RS)-3-(3,4-Dichloro-phenyl)-4-[(3-fluoro-4-trifluoromethyl-benzyl)-methyl-amino]-pyrrolidin-1-yl}-2-(4-dimethylamino-piperidin-1-yl)-ethanone]
Ki: 18.9 nM

CC(=O)NC1CCN(CC(=O)N2C[C@H](c3ccc(Cl)c(Cl)c3)[C@@H](N(C)Cc3ccc(C(F)(F)F)c(F)c3)C2)CC1 (racemic) [Example 137, N-[1-(2-{(3SR,4RS)-3-(3,4-Dichloro-phenyl)-4-[(3-fluoro-4-trifluoromethyl-benzyl)-methyl-amino]-pyrrolidin-1-yl}-2-oxo-ethyl)-piperidin-4-yl]-acetamide]
Ki: 8.7 nM

CC(=O)N1CCN(CC(=O)N2C[C@H](c3ccc(Cl)c(Cl)c3)[C@@H](N(C)Cc3ccc(C(F)(F)F)c(F)c3)C2)CC1 (racemic) [Example 138, 2-(4-Acetyl-piperazin-1-yl)-1-{(3SR,4RS)-3-(3,4-dichloro-phenyl)-4-[(3-fluoro-4-trifluoromethyl-benzyl)-methyl-amino]-pyrrolidin-1-yl}-ethanone]
Ki: 8.8 nM

CC1CN(CC(=O)N2C[C@H](c3ccc(Cl)c(Cl)c3)[C@@H](N(C)Cc3ccc(C(F)(F)F)c(F)c3)C2)CC(C)N1 (mixture of isomers) [Example 139, 1-{(3SR,4RS)-3-(3,4-Dichloro-phenyl)-4-[(3-fluoro-4-trifluoromethyl-benzyl)-methyl-amino]-pyrrolidin-1-yl}-2-(3,5-dimethyl-piperazin-1-yl)-ethanone]
Ki: 24.9 nM

CC1CN(CC(=O)N2C[C@H](c3ccc(Cl)c(Cl)c3)[C@@H](N(C)Cc3ccc(C(F)(F)F)c(F)c3)C2)CC(C)O1 (mixture of isomers) [Example 142, 1-{(3SR,4RS)-3-(3,4-Dichloro-phenyl)-4-[(3-fluoro-4-trifluoromethyl-benzyl)-methyl-amino]-pyrrolidin-1-yl}-2-(2,6-dimethyl-morpholin-4-yl)-ethanone]
Ki: 19.7 nM

CN(Cc1ccc(C(F)(F)F)c(F)c1)[C@H]1CN(C(=O)CN2CCC(NS(C)(=O)=O)CC2)C[C@@H]1c1ccc(Cl)c(Cl)c1 (racemic) [Example 143, N-[1-(2-{(3SR,4RS)-3-(3,4-Dichloro-phenyl)-4-[(3-fluoro-4-trifluoromethyl-benzyl)-methyl-amino]-pyrrolidin-1-yl}-2-oxo-ethyl)-piperidin-4-yl]-methanesulfonamide]
Ki: 12 nM
